Data on five compounds can be found in patent US5336673A, “3-substituted cephem compounds” (priority 1990, dated 1994).

One assay has as its system enterobacteria. The note with it: against the enterobacteria; cited from earlier work.
The next assay concerns Enterobacter cloacae P99. Put plainly: Antibacterial activity, MIC by Agar dilution method, standard test strain 19. Type of assay: cell-based. The note with it: P99, 18 h. The procedure:
(§1) The antibacterial activity was determined by an Agar dilution method as described below.
(§2) That is, the two-fold serial dilutions of the antibacterial compounds (1000 μg compound/ml) were prepared and dispersed in Muller Hinton Agar in a petri dish to a concentration of 100~0.002 μg/ml. The culture broths of standard test strains were inoculated on the medium to a concentration 10^7 CFU/ml, and incubated at 37° C. for 18 hours. The concentration of compounds(I) at which the strains were not grown was regarded as minimum inhibition concentration (MIC).
(§3) The results of antibacterial activity test of the representative examples of the compound (I) against 20 standard test strains shown in terms of MIC were indicated in Table 1.
19. Enterobacter cloacae P99

The target in assay [1] is T1, β-lactamase from Enterobacter cloacae P99 (Enterobacter cloacae, UniProt P05364).
T1 construct: directly isolated from Enterobacter cloacae P99, E. coli TEM and Citrobacter freundii; endogenous in cells; host or cells: Enterobacter cloacae P99
The experiment in a line: Stability against β-lactamase, relative hydrolysis. The note with it: Enterobacter cloacae P99 enzyme; 100 μM; relative(percentage), Cephaloridine taken as 100; OD at 260 nm. Type of assay: biochemical. As for the experimental part:
(§4) The β-lactamases employed in the test were directly isolated from Enterobacter cloacae P99, E. coli TEM and Citrobacter freundii, and the antibiotics for comparison were Cephaloridine, Cephradine, Cefoperazone and Cefotaxime.
The relative hydrolysis of various compounds were calculated relative to the OD of Cephaloridine.

For assay [2], the system named is Streptococcus faecium MD 86. The experiment in a line: Antibacterial activity, MIC by Agar dilution method, standard test strain 3. The class given is cell-based. The note with it: Enterococcus faecium, MD86, 10^7 CFU/ml, 37° C., 18 hours. As for the experimental part: as §1, §2, §3
3. Streptococcus faecium MD 86
For orientation: In agar dilution, organisms are placed on agar that contains the substance at set levels.

The next assay relates to Klebsiella oxytoca 1082E. The experiment in a line: Antibacterial activity, MIC by Agar dilution method, standard test strain 17. Type of assay: cell-based. The note with it: 10^7 CFU/ml, 37° C., 18 hours. As for the experimental part:
as §1, §2, §3

The subject of a further assay is Escherichia coli DC 2. The experiment in a line: Antibacterial activity, MIC by Agar dilution method, standard test strain 9. Type of assay: cell-based. The note with it: Escherichia coli, DC2, 18 h. As for the experimental part:
as §1, §2, §3

For assay [3], the system named is Pseudomonas aeruginosa 1771. Put plainly: Antibacterial activity, MIC by Agar dilution method, standard test strain 14. Type of assay: cell-based. The note with it: 10^7 CFU/ml, 37° C., 18 hours. As for the experimental part: as §1, §2, §3
14. Pseudomonas aeruginosa 1771

A further assay relates to Escherichia coli DC O. Put plainly: Antibacterial activity, MIC by Agar dilution method, standard test strain 8. The class given is cell-based. The note with it: Escherichia coli DC O; 10^7 CFU/ml, 37° C., 18 hours; read-out: MIC. As for the experimental part: as §1, §2, §3
In assay [4] the test system is Staphylococcus aureus 503. Put plainly: Antibacterial activity, MIC by Agar dilution method, standard test strain 6. Type of assay: cell-based. The note with it: 10^7 CFU/ml, 37° C., 18 hours. As for the experimental part: as §1, §2, §3
6. Staphylococcus aureus 503

For assay [5], the system named is Pseudomonas aeruginosa 1592E. Put plainly: Antibacterial activity, MIC by Agar dilution method, standard test strain 13. The note with it: 10^7 CFU/ml, 37° C., 18 hours. The class given is cell-based. As for the experimental part:
as §1, §2, §3
13. Pseudomonas aeruginosa 1592E

In another assay the test system is Salmonella typhimurium. The experiment in a line: Antibacterial activity, MIC by Agar dilution method, standard test strain 16. Type of assay: cell-based. The note with it: Salmonella enterica, 10^7 CFU/ml, 37° C., 18 hours. As for the experimental part: as §1, §2, §3
16. Salmonella typhimurium

The test system of assay [6] is Staphylococcus aureus SG 511. The experiment in a line: Antibacterial activity, MIC by Agar dilution method, standard test strain 4. Type of assay: cell-based. The note with it: SG511, 10^7 CFU/ml, 37° C., 18 hours. The procedure: as §1, §2, §3
4. Staphylococcus aureus SG 511

For a further assay, the system named is Staphyloccus aureus 285. Put plainly: Antibacterial activity, MIC by Agar dilution method, standard test strain 5. The class given is cell-based. The note with it: 10^7 CFU/ml, 37° C., 18 hours. The procedure:
as §1, §2, §3
5. Staphyloccus aureus 285

The test system of assay [7] is Streptococcus pyogenes A 77. The experiment in a line: Antibacterial activity, MIC by Agar dilution method, standard test strain 2. Type of assay: cell-based. The note with it: A77, 10^7 CFU/ml, 37° C., 18 hours. As for the experimental part:
as §1, §2, §3
2. Streptococcus pyogenes A 77

In assay [8] the target is T2, β-lactamase from Citrobacter freundii (Citrobacter freundii, UniProt P05193).
T2 construct: directly isolated from Enterobacter cloacae P99, E. coli TEM and Citrobacter freundii; endogenous in cells
The experiment in a line: Stability against β-lactamase, relative hydrolysis. Type of assay: biochemical. The note with it: Citrobacter freundii enzyme; 100 μM; relative(percentage), Cephaloridine taken as 100; OD at 260 nm. The procedure: (§5) In order to establish the usefulness in clinical applications of the compounds provided by the invention, the compound of Example 18 was tested for stability against the β-lactamase and for antibacterial activity on systemic infection model.
(§6) First, the stability against the β-lactamase was tested by determining the relative(percentage) hydrolysis of the compound of Example 18, relative to that of Cephaloridine, taking the absolute rate of Cephaloridine as 100.
as §4
(§7) Cephaloridine, other known antibiotics and the compound of Example 18 were reacted with each of the enzymes isolated from the strains and the OD were determined at 260 nm, λmax of Cephaloridine. The relative hydrolysis of various compounds were calculated relative to the OD of Cephaloridine.

Assay [9] deals with T3, β-lactamase from E. coli TEM (Escherichia coli, UniProt P62593).
T3 construct: directly isolated from Enterobacter cloacae P99, E. coli TEM and Citrobacter freundii; endogenous in cells; host or cells: E. coli TEM (plasmid-carried enzyme of the strain)
Put plainly: Stability against β-lactamase, relative hydrolysis. Type of assay: biochemical. The note with it: E. coli TEM enzyme; 100 μM; relative(percentage), Cephaloridine taken as 100; OD at 260 nm. The procedure:
as §5, §6, §4, §7

Assay [10] relates to Klebsiella aerogenes 1522E. Put plainly: Antibacterial activity, MIC by Agar dilution method, standard test strain 18. The note with it: Klebsiella aerogenes 1522E; 10^7 CFU/ml, 37° C., 18 hours; read-out: MIC. Type of assay: cell-based. As for the experimental part: as §1, §2, §3
18. Klebsiella aerogenes 1522E

In the next assay the test system is Escherichia coli 1507E. Put plainly: Antibacterial activity, MIC by Agar dilution method, standard test strain 11. The note with it: Escherichia coli 1507E; 10^7 CFU/ml, 37° C., 18 hours; read-out: MIC. The class given is cell-based. As for the experimental part:
as §1, §2, §3

For assay [11], the system named is Streptococcus pyogenes A 308. The experiment in a line: Antibacterial activity, MIC by Agar dilution method, standard test strain 1. Type of assay: cell-based. The note with it: A308, 10^7 CFU/ml, 37° C., 18 hours. The procedure: as §1, §2, §3
1. Streptococcus pyogenes A 308

The subject of assay [12] is Pseudomonas aeruginosa 9027. The experiment in a line: Antibacterial activity, MIC by Agar dilution method, standard test strain 12. Type of assay: cell-based. The note with it: 10^7 CFU/ml, 37° C., 18 hours. As for the experimental part: as §1, §2, §3
12. Pseudomonas aeruginosa 9027

For assay [13], the system named is Enterobacter cloacae 1321E. The experiment in a line: Antibacterial activity, MIC by Agar dilution method, standard test strain 20. Type of assay: cell-based. The note with it: Enterobacter cloacae 1321E; 10^7 CFU/ml, 37° C., 18 hours; read-out: MIC. As for the experimental part:
as §1, §2, §3
20. Enterobacter cloacae 1321E

In a further assay the test system is Escherichia coli TEM. Put plainly: Antibacterial activity, MIC by Agar dilution method, standard test strain 10. Type of assay: cell-based. The note with it: Escherichia coli TEM; 10^7 CFU/ml, 37° C., 18 hours; read-out: MIC. As for the experimental part: as §1, §2, §3
The test system of assay [14] is Pseudomonas aeruginosa 1771M. Put plainly: Antibacterial activity, MIC by Agar dilution method, standard test strain 15. Type of assay: cell-based. The note with it: 18 h. The procedure: as §1, §2, §3
15. Pseudomonas aeruginosa 1771M

The test system of another assay is Escherichia coli O 55. The experiment in a line: Antibacterial activity, MIC by Agar dilution method, standard test strain 7. Type of assay: cell-based. The note with it: O55; Escherichia coli O 55; 10^7 CFU/ml, 37° C., 18 hours; read-out: MIC. As for the experimental part: as §1, §2, §3
For a further assay, the system named is Pseudomonas. The note with it: against Pseudomonas, compared with other known cephalosporins; cited from earlier work.
A further assay deals with Staphylococcus. The note with it: against Staphylococcus; cited from earlier work.

In brackets after ≈: the same amount, converted by molar mass.

T1 sequence (P05364 21-381): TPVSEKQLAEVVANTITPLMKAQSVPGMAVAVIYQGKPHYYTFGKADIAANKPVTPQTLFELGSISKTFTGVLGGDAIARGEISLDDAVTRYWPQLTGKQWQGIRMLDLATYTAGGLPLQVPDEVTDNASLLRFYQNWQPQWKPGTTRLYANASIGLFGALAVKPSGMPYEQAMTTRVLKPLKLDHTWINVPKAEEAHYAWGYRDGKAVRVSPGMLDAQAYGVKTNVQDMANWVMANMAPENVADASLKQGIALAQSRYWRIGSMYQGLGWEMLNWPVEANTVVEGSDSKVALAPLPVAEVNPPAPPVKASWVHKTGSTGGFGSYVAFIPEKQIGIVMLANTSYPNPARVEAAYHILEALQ
T2 sequence (P05193 21-381): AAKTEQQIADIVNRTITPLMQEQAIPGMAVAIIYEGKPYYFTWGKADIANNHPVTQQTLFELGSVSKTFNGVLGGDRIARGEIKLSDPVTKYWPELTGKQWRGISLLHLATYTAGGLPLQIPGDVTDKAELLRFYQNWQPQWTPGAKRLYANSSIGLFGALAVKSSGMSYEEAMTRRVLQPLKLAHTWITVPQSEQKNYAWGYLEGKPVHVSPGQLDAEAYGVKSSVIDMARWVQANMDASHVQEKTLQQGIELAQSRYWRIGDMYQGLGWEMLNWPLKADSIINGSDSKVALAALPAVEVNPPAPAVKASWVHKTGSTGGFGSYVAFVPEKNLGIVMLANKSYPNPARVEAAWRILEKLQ
T3 sequence (P62593 24-286 limits assumed): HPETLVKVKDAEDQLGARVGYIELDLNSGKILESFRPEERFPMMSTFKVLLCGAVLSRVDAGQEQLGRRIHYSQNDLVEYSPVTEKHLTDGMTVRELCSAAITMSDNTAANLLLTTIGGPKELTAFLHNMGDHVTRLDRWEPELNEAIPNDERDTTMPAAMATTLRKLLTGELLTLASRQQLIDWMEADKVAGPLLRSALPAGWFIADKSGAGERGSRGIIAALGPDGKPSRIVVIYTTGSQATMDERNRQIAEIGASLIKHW

With `CO/N=C(\C(=O)N[C@@H]1C(=O)N2C(C(=O)O)=C(CSc3nnnn3C)CS[C@H]12)c1csc(N)n1` [Cefmenoxime], the “antibacterial activity (in words)” value in the assay with enterobacteria is reported as “strong antibacterial activities”.

The term MIC denotes the lowest concentration found to suppress growth. Take `CO/N=C(\C(=O)N[C@@H]1C(=O)N2C(C(=O)O)=C(COC(C)=O)CS[C@H]12)c1csc(N)n1` [Cefotaxime, reference compound]: the MIC with Enterobacter cloacae P99 is 100 µg/mL (≈ 220 µM); in [2] it was 100 µg/mL (≈ 220 µM); with Klebsiella oxytoca 1082E, 0.781 µg/mL (≈ 1.71 µM); with Escherichia coli DC 2 it was 0.013 µg/mL (≈ 0.0285 µM); in assay [3], 6.25 µg/mL (≈ 13.7 µM); in the assay on Escherichia coli DC O, 0.025 µg/mL (≈ 0.0549 µM). Also, the MIC in [4] came out at 0.781 µg/mL (≈ 1.71 µM); in assay [5] it was 12.5 µg/mL (≈ 27.4 µM); against Salmonella typhimurium it was 0.025 µg/mL (≈ 0.0549 µM); in assay [6], 1.56 µg/mL (≈ 3.43 µM); in the assay on Staphyloccus aureus 285, 1.56 µg/mL (≈ 3.43 µM); in assay [7], 0.004 µg/mL (≈ 0.00878 µM). In addition, the MIC was found to be 0.013 µg/mL (≈ 0.0285 µM) in assay [10]; 0.025 µg/mL (≈ 0.0549 µM) with Escherichia coli 1507E; 0.007 µg/mL (≈ 0.0154 µM) in assay [11]; 12.5 µg/mL (≈ 27.4 µM) in assay [12]; 0.013 µg/mL (≈ 0.0285 µM) in assay [13]; 0.025 µg/mL (≈ 0.0549 µM) in the assay on Escherichia coli TEM. Besides, the MIC in assay [14] was determined as 0.098 µg/mL (≈ 0.215 µM); in the assay with Escherichia coli O 55 it was 0.007 µg/mL (≈ 0.0154 µM). Moreover, the “Relative hydrolysis by β-lactamase” value in assay [1] stood at 0.0; in assay [8] it was 0.6; in [9], 0.6. Further, the “antibacterial activity (in words)” value in the assay with enterobacteria is “strong antibacterial activities”.

For the compound `CC(C)(O/N=C(\C(=O)N[C@@H]1C(=O)N2C(C(=O)[O-])=C(C[n+]3ccccc3)CS[C@H]12)c1csc(N)n1)C(=O)O` [Ceftazidime], the “antibacterial activity (in words)” value in the assay with Pseudomonas is reported as “relatively stronger”; with enterobacteria, “strong antibacterial activities”; in the assay with Staphylococcus, “poor antibacterial activity”.

Take `CO/N=C(\C(=O)N[C@@H]1C(=O)N2C(C(=O)O)=C(CSc3nc(=O)c(=O)[nH]n3C)CS[C@H]12)c1csc(N)n1` [Ceftriaxone]: the “antibacterial activity (in words)” value in the assay on enterobacteria is on record as “strong antibacterial activities”.

Regarding `CC1=C(C(=O)O)N2C(=O)[C@@H](NC(=O)[C@H](N)C3=CCC=CC3)[C@H]2SC1` [Cephradine], the “Relative hydrolysis by β-lactamase” value in assay [1] was determined as 14.9; in [8], 13.6; in assay [9] it was 0.8.
